The record followed here is ChEMBL document CHEMBL1128380, “Antimalarial activity of novel ring-contracted artemisinin derivatives” (1995).

What all share (type): functional
The test system of assay [1] is Mus musculus. Kind of assay: Antimalarial activity was determined by blood schizonticidal activity in mice (Mus musculus) infected with Plasmodium berghei K173 at 10 (mg/kgx5) subcutaneous dosage; Cured/treated = 0/6 on day 7.
The subject of assay [2] is Mus musculus. Kind of assay: Antimalarial activity was determined by Blood schizonticidal activity in mice (Mus musculus) infected with Plasmodium berghei K173 at 25 (mg/kgx5) subcutaneous dosage; Cured/treated = 4/4.
For assay [3], the system named is Mus musculus. Kind of assay: Antimalarial activity was determined by Blood schizonticidal activity in mice (Mus musculus) infected with Plasmodium berghei K173 at 12.5 (mg/kg x5) peroral dosage; Cured/treated = 3/6 on day 7.
Assay [4] concerns Mus musculus. Kind of assay: Antimalarial activity was determined by Blood schizonticidal activity in mice (Mus musculus) infected with Plasmodium berghei NS at 2.5 (mg/kgx5) subcutaneous dosage; Cured/treated = 6/6.
Assay [5] deals with Mus musculus. Kind of assay: Antimalarial activity was determined by blood schizonticidal activity in mice (Mus musculus) infected with Plasmodium berghei K173 at 25 (mg/kgx5) peroral dosage; Cured/treated = 6/6 on day 7.
For assay [6], the system named is Mus musculus. Kind of assay: Antimalarial activity was determined by blood schizonticidal activity in mice (Mus musculus) infected with Plasmodium berghei NS at 12.5 (mg/kg x5) peroral dosage; Cured/treated = 2/6.
Assay [7] relates to Mus musculus. Kind of assay: Antimalarial activity was determined by Blood schizonticidal activity in mice (Mus musculus) infected with Plasmodium berghei K173 at 0.625 (mg/kg x5) subcutaneous dosage; Cured/treated = 6/6 on day 7.
The subject of assay [8] is Mus musculus. Kind of assay: Antimalarial activity was determined by Blood schizonticidal activity in mice (Mus musculus) infected with Plasmodium berghei NS at 25 (mg/kgx5) peroral dosage; Cured/treated = 6/6.
Assay [9] has as its system Mus musculus. Kind of assay: Antimalarial activity was determined by Blood schizonticidal activity in mice (Mus musculus) infected with Plasmodium berghei NS at 7.5 (mg/kg x5) peroral dosage; Cured/treated = 8/8.
In assay [10] the test system is Mus musculus. Kind of assay: Antimalarial activity was determined by blood schizonticidal activity in mice (Mus musculus) infected with Plasmodium berghei K173 at 10 (mg/kgx5) peroral dosage; Cured/treated = 0/6 on day 7.
Assay [11] deals with Mus musculus. Kind of assay: Antimalarial activity was determined by Blood schizonticidal activity in mice (Mus musculus) infected with Plasmodium berghei K173 at 1.25 (mg/kgx5) subcutaneous dosage; Cured/treated = 30/30 on day 7.
Assay [12] has as its system Mus musculus. Kind of assay: Antimalarial activity was determined by Blood schizonticidal activity in mice (Mus musculus) infected with Plasmodium berghei K173 at 20 (mg/kg x5) peroral dosage; Cured/treated = 4/12 on day 7.
The subject of assay [13] is Mus musculus. Kind of assay: Antimalarial activity was determined by blood schizonticidal activity in mice (Mus musculus) infected with Plasmodium berghei NS at 5 (mg/kg x5) subcutaneous dosage; Cured/treated = 19/20 on day 7.
In assay [14] the test system is Mus musculus. Kind of assay: Antimalarial activity was determined by Blood schizonticidal activity in mice (Mus musculus) infected with Plasmodium berghei K173 at 25 (mg/kgx5) peroral dosage; Cured/treated = 10/12 on day 7.
For assay [15], the system named is Mus musculus. Kind of assay: Antimalarial activity was determined by Blood schizonticidal activity in mice (Mus musculus) infected with Plasmodium berghei NS at 2.5 (mg/kgx5) subcutaneous dosage; Cured/treated = 11/14.
The test system of assay [16] is Mus musculus. Kind of assay: Antimalarial activity was determined by Blood schizonticidal activity in mice (Mus musculus) infected with Plasmodium berghei K173 at 0.625 (mg/kg x5) subcutaneous dosage; Cured/treated = 14/19 on day 7.
In assay [17] the test system is Mus musculus. Kind of assay: Antimalarial activity was determined by Blood schizonticidal activity in mice (Mus musculus) infected with Plasmodium berghei NS at 25 (mg/kgx5) peroral dosage; Cured/treated = 0/6.
The subject of assay [18] is Mus musculus. Kind of assay: Antimalarial activity was determined by Blood schizonticidal activity in mice (Mus musculus) infected with Plasmodium berghei K173 at 2.5 (mg/kgx5) subcutaneous dosage; Cured/treated = 0/6 on day 7.
The test system of assay [19] is Mus musculus. Kind of assay: Antimalarial activity was determined by blood schizonticidal activity in mice (Mus musculus) infected with Plasmodium berghei K173 at 25 (mg/kgx5) peroral dosage; Cured/treated = 0/6.
Assay [20] has as its system Mus musculus. Kind of assay: Antimalarial activity was determined by Blood schizonticidal activity in mice (Mus musculus) infected with Plasmodium berghei NS at 5 (mg/kg x5) subcutaneous dosage; Cured/treated = 10/10.
Assay [21] relates to Mus musculus. Kind of assay: Antimalarial activity was determined by blood schizonticidal activity in mice (Mus musculus) infected with Plasmodium berghei NS at 5 (mg/kg x5) subcutaneous dosage; Cured/treated = 16/18 on day 7.
Assay [22] concerns Mus musculus. Kind of assay: Antimalarial activity was determined by blood schizonticidal activity in mice (Mus musculus) infected with Plasmodium berghei K173 at 1.25 (mg/kgx5) subcutaneous dosage; Cured/treated = 23/35 on day 7.
Assay [23] relates to Mus musculus. Kind of assay: Antimalarial activity was determined by Blood schizonticidal activity in mice (Mus musculus) infected with Plasmodium berghei K173 at 20 (mg/kg x5) peroral dosage; Cured/treated = 34/34.
Assay [24] has as its system Mus musculus. Kind of assay: Antimalarial activity was determined by Blood schizonticidal activity in mice (Mus musculus) infected with Plasmodium berghei K173 at 2.5 (mg/kgx5) subcutaneous dosage; Cured/treated = 36/36.
Assay [25] concerns Mus musculus. Kind of assay: Antimalarial activity was determined by blood schizonticidal activity in mice (Mus musculus) infected with Plasmodium berghei NS at 25 (mg/kgx5) peroral dosage; Cured/treated = 7/12 on day 7.
Assay [26] concerns Mus musculus. Kind of assay: Antimalarial activity was determined by blood schizonticidal activity in mice (Mus musculus) infected with Plasmodium berghei K173 at 5 (mg/kg x5) subcutaneous dosage; Cured/treated = 4/6 on day 7.

With `C[C@@H]1CCC2[C@]34OOC(C)(CCC13)O[C@H]4O[C@]2(C)C=O` (single isomer, unassigned), the Cured/treated in assay [1] was 0; in assay [2], 4.

Take `C[C@H]1[C@H](OC[C@]2(C)OC3OC4(C)CCC5[C@@H](C)CCC2[C@]35OO4)O[C@@H]2OC3(C)CCC4[C@H](C)CC[C@@H]1[C@]42OO3` (single isomer, unassigned): the Cured/treated was determined as 3 in [3]; 6 in [4]; 6 in assay [5]; 2 in [6]; 6 in assay [7]; 6 in assay [8].

`C[C@H]1[C@@H](OC[C@]2(C)OC3OC4(C)CCC5[C@@H](C)CCC2[C@]35OO4)O[C@@H]2OC3(C)CCC4[C@H](C)CC[C@@H]1[C@]42OO3` (single isomer, unassigned): the Cured/treated in assay [9] was found to be 8; in [10] it was 0; in assay [11] it was 30; in assay [12], 4; in assay [13], 19; in assay [14], 10. Also, the Cured/treated in assay [15] was 11; in [16] it was 14; in assay [17], 0.

On to `C=CCOC[C@@]1(C)O[C@@H]2OC3(C)CCC4[C@H](C)CC[C@@H]1[C@]42OO3` (single isomer, unassigned), for which the figures for the Cured/treated in [18], in assay [19] and in assay [20] were 0, 0 and 10, respectively.

For `CCO[C@H]1O[C@@H]2O[C@@]3(C)CC[C@H]4[C@H](C)CC[C@@H]([C@H]1C)[C@@]24OO3` [ARTEMOTIL], the Cured/treated was found to be 16 in assay [21]; 23 in [22]; 34 in assay [23]; 36 in assay [24]; 7 in [25].

For the molecule `C[C@@H]1CC[C@@H]2[C@]34OO[C@@](C)(CCC13)O[C@H]4O[C@]2(C)C(=O)NCc1ccc(C(F)(F)F)cc1` (stereo partly specified), the Cured/treated in assay [26] is listed as 4.
